Values joined by “and” are separate entries in the source; they are usually repeats but may differ in a detail not shown here. Equal entries are not always repeated. Where two headings read alike, the source gives them in different places.
Key:
[1] = test system: HCT116 cells; test: Gene expression analysis by qPCR array (TaqMan Array Human Molecular Mechanisms of Cancer); assay type: cell-based; details: HCT116, 12 h; DOX 1 μM, PL 10 μM, 1 2.5 μM, 2 5 μM; negative control RQ = 1.0
Protocol: HCT116 cells were plated in bottles tissue culture (7x10^4 cells/mL). After 12h of incubation with the complexes, total RNA was isolated from the cells using the RNeasy Plus mini kit (Qiagen, Hilden, Germany) according to the manufacturer’s instructions. The RNA was evaluated by fluorimetry (QuBit™, Life Technologies, Camarillo, CA, EUA). RNA reverse transcription was performed using Superscript VILO™ (Invitrogen Corporation, Waltham, MA, USA). A 96-well plate TaqMan® Array Human Molecular Mechanisms of Cancer (ID 4418806, Applied Biosystems™, Foster City, CA, EUA) was used for the gene expression study by qPCR. The reactions were conducted in the ABI ViiA7 (Applied Biosystems™, Foster City, CA, EUA). The cycle conditions comprised 2 min at 50 °C, 20 s at 95 °C, then 40 cycles of 3 s at 95 °C and 30 s at 60 °C. […] The GAPDH, 18S and HPRT1 genes were used for normalization. All experiments were performed in DNase/RNase free conditions.

[2] = test system: HCT116 cells; details: trypan blue
Protocol: In all experiments, 2 mL of a HCT116 cell solution (7 x 10^4 cells/mL) was inserted in 24-well plates and incubated overnight to allow the cells to adhere to the plate surface. […] The negative control was treated with the vehicle (0.1% of a solution containing 70% sorbitol, 25% tween 80 and 5% water) used for diluting the compounds tested. […] Cell viability was assessed using trypan blue exclusion assay for all experiments.

[3] = test system: HCT116 (human colon carcinoma); test: Cytotoxic activity, alamar blue assay, HCT116; assay type: cell-based
Source text: (§1) HCT116 (human colon carcinoma), HepG2 (human hepatocellular carcinoma), HSC-3 (human oral squamous cell carcinoma), SCC-4 (human oral squamous cell carcinoma), SCC-9 (human oral squamous cell carcinoma), HL-60 (human promyelocytic leukemia), K-562 (human chronic myelogenous leukemia), B16-F10 (murine melanoma), MRC-5 (human lung fibroblast), WT SV40 MEF (wild-type immortalized mouse embryonic fibroblast) and BAD KO SV40 MEF (BAD gene knockout immortalized mouse embryonic fibroblast) cell lines were obtained from the American Type Culture Collection (ATCC, Manassas, VA, USA) and cultured in RPMI-1640 medium (Gibco-BRL, Gaithersburg, MD, USA) with 10% fetal bovine serum (Life, Carlsbad, CA, USA), 2 mM L-glutamine (Vetec Química Fina, Duque de Caxias, RJ, Brazil) and 50 μg/mL gentamycin (Life, Carlsbad, CA, USA). Adherent cells were collected by treatment with 0.25% trypsin EDTA solution (Gibco-BRL, Gaithersburg, MD, USA). All cell lines were cultured in flasks at 37°C in 5% CO2 and sub-cultured every 3-4 days to maintain exponential growth.
(§2) Cell viability was quantified using the alamar blue assay, according to Ahmed et al.. Cells were inserted in 96-well plates for all experiments (7 x 10^4 cells/mL for adherent cells or 3 x 10^5 cells/mL for suspended cells in 100 μL of medium). […] Negative controls received the vehicle that was used for diluting the compounds tested.

[4] = test system: HL-60 (human promyelocytic leukemia); test: Cytotoxic activity, alamar blue assay, HL-60; assay type: cell-based
Source text: as §1, §2

Substance: [Ru(piplartine)(dppb)(bipy)](PF6)2 [Complex 2]
- RQ ABL1 [1]: 0.863
- RQ AKT1 [1]: 0.642
- RQ AKT2 [1]: 0.592
- RQ APC [1]: 0.576
- RQ BAX [1]: 0.739
- RQ BCAR1 [1]: 0.596
- RQ BCL2 [1]: 0.8 and 0.748
- RQ BCL2L1 [1]: 0.739
- RQ BCL2L11 [1]: 0.904
- RQ BID [1]: 0.671
- RQ BRAF [1]: 0.781
- RQ CASP8 [1]: 0.930
- RQ CASP9 [1]: 0.828
- RQ CCND1 [1]: 0.5 and 0.461
- RQ CCND3 [1]: 0.723
- RQ CCNE1 [1]: 0.893
- RQ CDC42 [1]: 1.411
- RQ CDH1 [1]: 1.1 and 1.098
- RQ CDK2 [1]: 0.693
- RQ CDK4 [1]: 0.898
- RQ CDKN1A [1]: 0.996
- RQ CDKN1B [1]: 0.783
- RQ CDKN2A [1]: 1.2 and 1.153
- RQ CRK [1]: 0.758
- RQ CTNNB1 [1]: 0.877
- RQ CYCS [1]: 1.0 and 1.043
- RQ E2F1 [1]: 0.736
- RQ EGFR [1]: 11,276.3 and 11,276.298
- RQ ELK1 [1]: 0.628
- RQ ERBB2 [1]: 1.006
- RQ FADD [1]: 74.1 and 74.142
- RQ FAS [1]: 1.037
- RQ FGF2 [1]: 1.003
- RQ FYN [1]: 1.169
- RQ FZD1 [1]: 0.9 and 0.860
- RQ GRB2 [1]: 0.693
- RQ GSK3B [1]: 0.738
- RQ GUSB [1]: 2.9
- RQ HRAS [1]: 0.561
- RQ IGF1R [1]: 0.7 and 0.677
- RQ ITGA2B [1]: 0.1 and 0.135
- RQ ITGAV [1]: 1,149.0 and 1,149.015
- RQ ITGB1 [1]: 0.579
- RQ ITGB3 [1]: 1.243
- RQ JUN [1]: 2.3 and 2.306
- RQ KDR [1]: 1.4 and 1.408
- RQ KRAS [1]: 0.979
- RQ MAP2K1 [1]: 2,107.2 and 2,107.239
- RQ MAP3K5 [1]: 4.3 and 4.314
- RQ MAPK1 [1]: 1.062
- RQ MAPK3 [1]: 1.9 and 1.853
- RQ MAPK8 [1]: 0.623
- RQ MAPK14 [1]: 1.145
- RQ MAX [1]: 0.9 and 0.912
- RQ MDM2 [1]: 1.272
- RQ MYC [1]: 0.796
- RQ NFKB1 [1]: 0.699
- RQ NFKB2 [1]: 1.536
- RQ NFKBIA [1]: 0.9 and 0.894
- RQ NRAS [1]: 0.923
- RQ PIK3CA [1]: 0.565
- RQ PIK3R1 [1]: 1.3 and 1.299
- RQ PTEN [1]: 0.8 and 0.776
- RQ PTK2 [1]: 2.4 and 2.357
- RQ PTK2B [1]: 1.0 and 1.024
- RQ RAC1 [1]: 2.7 and 2.676
- RQ RAF1 [1]: 0.9 and 0.909
- RQ RB1 [1]: 0.821
- RQ RELA [1]: 0.845
- RQ RHOA [1]: 1.017
- RQ SMAD4 [1]: 2.1 and 2.050
- RQ SOS1 [1]: 0.2 and 0.188
- RQ SPP1 [1]: 10.1 and 10.094
- RQ SRC [1]: 0.801
- RQ TCF3 [1]: 0.608
- RQ TGFB1 [1]: 0.868
- RQ TGFBR1 [1]: 0.781
- RQ TGFBR2 [1]: 1.1 and 1.085
- RQ TP53 [1]: 1.5 and 1.466
- RQ VEGFA [1]: 1.321
- reduced the number of viable cells ([2]; HCT116, 2.5 μM, 24 h): 35.5%
- reduced the number of viable cells ([2]; HCT116, 2.5 μM, 48 h): 55.5%
- reduced the number of viable cells ([2]; HCT116, 5 μM, 24 h): 45.8%
- reduced the number of viable cells ([2]; HCT116, 5 μM, 48 h): 66.9%

Substance: [Ru(piplartine)(dppf)(bipy)](PF6)2 [Complex 1]
- RQ ABL1 [1]: 1.302
- RQ AKT1 [1]: 1.469
- RQ AKT2 [1]: 1.663
- RQ APC [1]: 0.972
- RQ BAX [1]: 1.572
- RQ BCAR1 [1]: 1.687
- RQ BCL2 [1]: 2.4 and 2.367
- RQ BCL2L1 [1]: 1.936
- RQ BCL2L11 [1]: 1.710
- RQ BID [1]: 0.743
- RQ BRAF [1]: 1.072
- RQ CASP8 [1]: 1.583
- RQ CCND1 [1]: 1.2 and 1.153
- RQ CCND3 [1]: 1.447
- RQ CCNE1 [1]: 1.075
- RQ CDC42 [1]: 1.755
- RQ CDH1 [1]: 3.7 and 3.659
- RQ CDK2 [1]: 1.467
- RQ CDK4 [1]: 1.390
- RQ CDKN1A [1]: 1.331
- RQ CDKN1B [1]: 1.039
- RQ CDKN2A [1]: 2.5 and 2.469
- RQ CRK [1]: 1.184
- RQ CTNNB1 [1]: 1.131
- RQ CYCS [1]: 2.0 and 1.961
- RQ DVL1 [1]: 1.576
- RQ E2F1 [1]: 1.631
- RQ EGFR [1]: 1.3 and 1.294
- RQ ELK1 [1]: 1.275
- RQ ERBB2 [1]: 1.941
- RQ FADD [1]: 0.6 and 0.556
- RQ FAS [1]: 1.496
- RQ FGF2 [1]: 1.120
- RQ FN1 [1]: 3.8 and 3.841
- RQ FOS [1]: 11.9 and 11.943
- RQ FYN [1]: 2.5 and 2.474
- RQ FZD1 [1]: 2.3 and 2.253
- RQ GRB2 [1]: 0.961
- RQ GSK3B [1]: 1.191
- RQ GUSB [1]: 4.5
- RQ HRAS [1]: 0.777
- RQ IGF1R [1]: 2.3 and 2.283
- RQ ITGA2B [1]: 3.1 and 3.092
- RQ ITGAV [1]: 1.4 and 1.426
- RQ ITGB1 [1]: 0.838
- RQ JUN [1]: 3.7 and 3.708
- RQ KDR [1]: 4.4 and 4.404
- RQ KRAS [1]: 0.886
- RQ MAP2K1 [1]: 0.8 and 0.822
- RQ MAP3K5 [1]: 0.3 and 0.308
- RQ MAPK1 [1]: 1.305
- RQ MAPK3 [1]: 2.0 and 2.014
- RQ MAPK8 [1]: 1.411
- RQ MAPK14 [1]: 1.008
- RQ MAX [1]: 3.6 and 3.614
- RQ MDM2 [1]: 0.794
- RQ MYC [1]: 1.065
- RQ NFKB1 [1]: 1.288
- RQ NFKB2 [1]: 1.340
- RQ NFKBIA [1]: 2.0 and 2.007
- RQ NRAS [1]: 1.178
- RQ PIK3CA [1]: 0.880
- RQ PIK3R1 [1]: 2.5 and 2.456
- RQ PTEN [1]: 2.0 and 2.037
- RQ PTK2 [1]: 1.6 and 1.561
- RQ PTK2B [1]: 2.3 and 2.270
- RQ RAC1 [1]: 1.1 and 1.059
- RQ RAF1 [1]: 2.0 and 1.951
- RQ RB1 [1]: 1.003
- RQ RELA [1]: 1.390
- RQ RHOA [1]: 1.129
- RQ SHC1 [1]: 0.4 and 0.436
- RQ SMAD4 [1]: 1.4 and 1.409
- RQ SOS1 [1]: 1.2 and 1.161
- RQ SPP1 [1]: 2.5
- RQ SRC [1]: 1.584
- RQ TGFB1 [1]: 0.911
- RQ TGFBR1 [1]: 1.324
- RQ TGFBR2 [1]: 2.4 and 2.358
- RQ TP53 [1]: 3.5 and 3.478
- RQ VEGFA [1]: 1.664
- more potent than metal-free piplartine ([3]; HCT116, IC50 72h): 4 fold
- Selectivity index (SI) ([3]; SI = IC50[MRC-5]/IC50[HCT116]): 2.0
- Selectivity index (SI) ([3]; SI = IC50[PBMC]/IC50[HCT116]): 1.1
- more potent than metal-free piplartine ([4]; HL-60, IC50 72h): 4 fold
- Selectivity index (SI) ([4]; SI = IC50[MRC-5]/IC50[HL-60]): 1.0
- Selectivity index (SI) ([4]; SI = IC50[PBMC]/IC50[HL-60]): 0.5
- reduced the number of viable cells ([2]; HCT116, 1.25 μM, 24 h): 40.2%
- reduced the number of viable cells ([2]; HCT116, 1.25 μM, 48 h): 61.5%
- reduced the number of viable cells ([2]; HCT116, 2.5 μM, 24 h): 65.4%
- reduced the number of viable cells ([2]; HCT116, 2.5 μM, 48 h): 77.1%

Source: publication PMC5732813, “Novel piplartine-containing ruthenium complexes: synthesis, cell growth inhibition, apoptosis induction and ROS production on HCT116 cells” (Oncotarget, 2017)
